In patent US20100267928A1, “ACTIVATABLE DIAGNOSTIC AND THERAPEUTIC COMPOUND” (priority 2007, published 2010):
Primed or numbered codes have the meaning given here. Where no end group is shown, it is not given here. The star is where a group is joined. FITC = O=C1OC2(c3ccc(O)cc3Oc3cc(O)ccc32)c2ccc(NC(=S)*)cc21; DOTA = O=C(O)CN1CCN(CC(=O)O)CCN(CC(=O)*)CCN(CC(=O)O)CC1; FITC′ = fluorescent dye, fluorescein isothiocyanate

How the values were obtained:
[1] = tested on: LN18 and U373 glioma cells; details: for apoptosis (binding of Alexa annexin to phosphatidyl serine; morphologic alterations), MMP-2 active / signs of cell death, MMP-2 inactive: 130 μM; for apoptosis (binding of Alexa annexin to phosphatidyl serine; morphologic alterations), MMP-2 active: APMA-containing medium without inhibitor; for signs of cell death, MMP-2 inactive: data not shown
Protocol: Human malignant glioma cells (U373 and LN18) were seated into 25 cm^2 culture flasks which contained 3 ml RPMI medium. This was left as it is for one day so that enough matrix metalloprotenases (MMP-2) could accumulate.
In a second test the same compounds were again dissolved in the media of 12 flasks (130 μM), however now with MMP-2 inhibitor I (Calbiochem).
As a control four small flasks were used wherein both cell lines were incubated in a one day old medium with and also without APMA.
For the confocal laser scanning microscopy an inverted LSM510 laser scanning microscope (Karl Zeiss, Jena, Deutschland) (Objectives: LD Achroplan 40×0.6, Plan Neofluar 20×0.50, 40×0.75) was used [fluorescence excitation at 488 nm (argon-ion laser) and […] (helium-neon laser)]. Superimposed images of FITC- and alexa-stained cells were produced. All measurements were performed on living, non-fixed cells for three times.

[2] = tested on: LN18 and U373 glioma cells; test: Confocal laser scanning microscopy (CLSM) and FACS, staining of cell nuclei; format: cell-based, human; details: 130 μM; for staining of the cell nuclei, MMP-2 active: APMA-containing medium without inhibitor; for staining of the cell nuclei, MMP-2 inactive: APMA-containing medium, MMP-2 inactive/inhibited
Protocol: (§1) The FACS analysis was performed on a Becton-Dickinson FACSCalibur. [[…] of the cell suspension (1×10^6 cells+[…] FACS buffer (DPBS buffer with 1% paraformaldehyde)]. Approximately 25.000 to 35.000 cells were measured per sample [fluorescence excitation: argon-ion laser (480 nm), fluorescence detection: 540 to 565 nm band-path filter]. The tests were repeated two times.

MMP-2 = biological target: T1, MMP-2 (Homo sapiens, UniProt P08253); test: Cleavage test with MMP-2, cleavage products examined by HPLC; format: biochemical; details: for cleavage of the compound by MMP-2 (HPLC): already active MMP-2 or proform of MMP-2 activated by APMA, 2 hours in HEPES buffer; for cleavage of the compound by MMP-2 in presence of the inhibitor (HPLC): with MMP-2 inhibitor I
T1 construct: purchased Calbiochem
T1 sequence (P08253 110-660): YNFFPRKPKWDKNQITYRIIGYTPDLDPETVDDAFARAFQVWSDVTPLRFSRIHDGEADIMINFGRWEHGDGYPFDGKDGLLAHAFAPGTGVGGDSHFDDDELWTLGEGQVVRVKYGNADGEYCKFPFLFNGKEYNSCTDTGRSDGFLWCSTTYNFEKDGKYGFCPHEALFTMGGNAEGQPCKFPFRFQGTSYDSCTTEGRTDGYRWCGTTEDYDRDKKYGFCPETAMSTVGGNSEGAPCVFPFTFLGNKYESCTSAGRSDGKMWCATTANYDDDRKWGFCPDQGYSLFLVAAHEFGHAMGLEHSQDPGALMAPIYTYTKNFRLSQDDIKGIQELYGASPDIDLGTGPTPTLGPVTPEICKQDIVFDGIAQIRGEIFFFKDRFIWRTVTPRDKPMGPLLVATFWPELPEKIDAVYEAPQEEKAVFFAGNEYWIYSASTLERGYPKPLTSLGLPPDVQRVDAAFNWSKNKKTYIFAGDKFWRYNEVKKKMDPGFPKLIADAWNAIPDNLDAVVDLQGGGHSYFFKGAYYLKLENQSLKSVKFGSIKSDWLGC
Protocol: The incubation in HEPES buffer with active MMP-2 was made for 2 hours.
[…]. For this 1% APMA stock solution (100 mM in DMSO) was added to the solution containing the MMP-2 proenzyme and the compounds (final APMA concentration: 1 mM, with 1% DMSO).
In the following also an incubation of 2 hours was performed. In addition the tests were made with the MMP-2 inhibitor I (Calbiochem). All six compounds were, as a control, also incubated into HEPES buffer without MMP-2 for two hours.

LN18 glioma cells = test: FACS analysis of fluorescence-stained cells; format: cell-based, human; details: for strongly stained cells in FACS after cleavage by active MMP-2: active versus inactive MMP-2 in culture medium; for fluorescence after cleavage by MMP-2 in comparison to the components 2 and 2A: depending on the concentration, FIG. 5
Protocol: as §1

[3] = tested on: U373 and LN18 glioma cells; test: Magnetic resonance relaxometry on glioma cell centrifugates; format: cell-based, human; details: for shortening of the T1 time, inhibitor-free medium: without MMP-2 inhibitor
Protocol: Human U373 and LN18 glioma cells were grown in 25 cm^2 culture flasks (70% confluence). Accutase™ (PAA laboratories, Pasching, Austria) was added to strip off the cells from the bottom of the culture flasks.
In a first try the cells were collected and subsequently distributed on 16 Eppendorf-vials (6×10^6 cells per vial). The cells in the first four vials were used as a control (only RPMI medium with and also without APMA, two cell lines). […] In the following it was washed for three times with PBS and centrifuged with 800 rpm (rounds per minute) for 5 minutes.
In another test adherent U373 and LN18 glioma cells were incubated with the compounds 2A, 4A and […], and were stripped off in the following and collected in Eppendorf vials for the MRT. The MRT analysis of the Eppendorf vials with the cell centrifugates were performed in a 3 Tesla full body MRT apparatus (Trio, Siemens Magnetom Sonata, circular polarised knee coil).
The following spin echo sequence was used to obtain sagittal T1-weighted MRT images.
[…] TE (echo time): 7.4 ms, flip angle 90°, averages: 1, concatenations: 2, measurements: 2, number of slices: 19, distance factor: 30%, slice thickness: 3 mm, field of view read: 180 mm, field of view phase: 100%, base resolution: 256, phase resolution: 100%, voxel size: 0.7×0.7×3.0 mm, scan time: 1:48 min.
By means of multiple spin echo measurements (TR: 20-8000 ms, 50 different TR values) different signal intensities were measured through which the T1 relaxation time could be determined.
TR: 20-8000 ms (50 different TR values), TE: 6.4 ms, flip angle 90°, averages: 1, measurements; 1, number of slices: 1, slice thickness: 1 mm, field of view read: 120 mm, field of view phase: 87.5, base resolution 128, phase resolution; 100% voxel size: 0.9×0.9×1 mm.
For the analysis and calculations a Matlab programme (Math Works, Natick, Mass., USA) was used. The T1 values were determined via a two-parameter fit. All signal curves were examined and rated as being mono-exponential. All tests were performed three times.

With `CCCCCCCC/C=C\CCCCCCCC(=O)NO` [MMP-2 inhibitor I, reference compound] the “damage of the cell vitality by additive in the medium” value ([1]; additive alone in RPMI medium, LN18 and U373 glioma cells) was “did not result in a damage of the cell vitality”.
With “K(DOTA)-G-PLGLA-GGPKKKRKVRRRR-K(FITC)-GG-K(DOTA) (K(DOTA)GPLGLAGGPKKKRKVRRRRK(FITC)GGK(DOTA)) [V4]” the “staining of the cell nuclei, MMP-2 active” value [2] was “staining of the cell nuclei can only be observed after the cleavage”, the “staining of the cell nuclei, MMP-2 inactive” value (shortened to “staining … MMP-2 inactive”) [2] was “few stained cell nuclei” and the “apoptosis (binding of Alexa annexin to phosphatidyl serine; morphologic alterations), MMP-2 active” value [1] was “apoptotic”. The “signs of cell death, MMP-2 inactive” value [1] was “did not show any signs of cell death”, the “cleavage of the compound by MMP-2 (HPLC)” value (MMP-2) was “cleaved” and the “cleavage of the compound by MMP-2 in presence of the inhibitor (HPLC)” value (from here on “cleavage … of the inhibitor (HPLC)”) (MMP-2) was “prevented”. The “strongly stained cells in FACS after cleavage by active MMP-2” value (LN18 glioma cells; LN18 glioma cells) was “considerable increase of the strongly stained cells”, the “displacement of the peak of the FACS histogram to the right, V4 versus V2” value (LN18 glioma cells; LN18 glioma cells, after cleavage by active MMP-2) was “more pronounced” and the “fluorescence after cleavage by MMP-2 in comparison to the components 2 and 2A” value (“fluorescence after cleavage” for short) (LN18 glioma cells) was “stronger fluorescence”.
“K(DOTA)-GG-K(FITC)-RRRR-G-PLGLA-G-RRRR-K(FITC)-GG-K(DOTA) (K(DOTA)GGK(FITC)RRRRGPLGLAGRRRRK(FITC)GGK(DOTA)) [V5]” was tested, and the “staining of the cell nuclei, MMP-2 active” value [2] was “accumulates in the cell nuclei”, the “staining … MMP-2 inactive” value [2] was “the cells remain unstained” and the “staining … MMP-2 inactive” value ([2]; listed as 5) was “few stained cell nuclei”. The “apoptosis (binding of Alexa annexin to phosphatidyl serine; morphologic alterations), MMP-2 active” value [1] was “apoptotic”, the “signs of cell death, MMP-2 inactive” value [1] was “did not show any signs of cell death” and the “cleavage of the compound by MMP-2 (HPLC)” value (MMP-2) was “split into two new peaks”. The “cleavage of the compound by MMP-2 (HPLC)” value (MMP-2; listed as 5) was “cleaved”, the “cleavage … of the inhibitor (HPLC)” value (MMP-2) was “prevented” and the “fluorescence after cleavage” value (LN18 glioma cells) was “stronger fluorescence”.
With “K-(GdDOTA)-GG-K(FITC)-RRRR-G-PLGLA-G-RRRR-K(FITC)-GG-K(GdDOTA) (K(DOTA)GGK(FITC′)RRRRGPLGLAGRRRRK(FITC′)GGK(DOTA)-NH2; also: DOTA groups complexed with Gd (GdDOTA)) [V5A]” the “staining … MMP-2 inactive” value [2] was “few stained cell nuclei”, the “apoptosis (binding of Alexa annexin to phosphatidyl serine; morphologic alterations), MMP-2 active” value [1] was “apoptotic” and the “cleavage of the compound by MMP-2 (HPLC)” value (MMP-2; listed as 5A) was “cleaved”. For the same compound, the “cleavage of the compound by MMP-2 (HPLC)” value (MMP-2; listed as V5a) was “split into two new peaks”, the “cleavage … of the inhibitor (HPLC)” value (MMP-2) was “prevented” and the “fluorescence after cleavage” value (LN18 glioma cells) was “stronger fluorescence”. For the same compound, the “shortening of the T1 time in comparison to component 2A, inhibitor-free medium” value ([3]; depending on the concentration) was “stronger shortening of the T1 time” and the “shortening of the T1 time, inhibitor-free medium” value [3] was “more distinct shortening of the T1 time”.
With “PKKKRKV-K(FITC)-GG-K(DOTA)-PLGVR-K(DOTA) (PKKKRKVKGGKPLGVRK) [V2]” the “staining … MMP-2 inactive” value [2] was “few stained cell nuclei”, the “signs of cell death, MMP-2 inactive” value [1] was “did not show any signs of cell death” and the “cleavage of the compound by MMP-2 (HPLC)” value (MMP-2) was “cleaved”. The “cleavage … of the inhibitor (HPLC)” value (MMP-2) was “prevented” and the “strongly stained cells in FACS after cleavage by active MMP-2” value (LN18 glioma cells; LN18 glioma cells) was “considerable increase of the strongly stained cells”.
In the case of “PKKKRKV-K(FITC)-GG-K(GdDOTA)-PLGVR-K(GdDOTA) (PKKKRKVKGGKPLGVRK; not fully specified) [V2A]”, the “staining … MMP-2 inactive” value [2] is reported as “few stained cell nuclei”, the “signs of cell death, MMP-2 inactive” value [1] is reported as “did not show any signs of cell death” and the “cleavage of the compound by MMP-2 (HPLC)” value (MMP-2) is reported as “cleaved”. For the same compound, the “cleavage … of the inhibitor (HPLC)” value (MMP-2) was “prevented”, the “shortening of the T1 time in comparison to the native control, inhibitor-containing medium” value ([3]; 26 and 130 μM, with MMP-2 inhibitor) was “minor shortening of the T1 time” and the “signal intensity at TR: 400 ms, active MMP-2 versus inactive MMP-2” value ([3]; LN18 glioma cell centrifugates, 26 and 130 μm, washed and centrifuged three times) was “considerably higher signal intensity”. The “shortening of the T1 time, inhibitor-free medium” value [3] was “more distinct shortening of the T1 time”.
